Experimental data: patent publication US9643959B2, “Tubulin polymerization inhibitor and method for synthesizing same” (KOREA RESEARCH INSTITUTE OF BIOSCIENCE AND BIOTECHNOLOGY, priority 2013, dated 2017)

Test system: cell proliferation
Test: screening of the small-molecule library for materials that can inhibit cell proliferation
Assay type: cell-based
Details: screen of small-molecule library; no data or method given

CCOC(=O)Cn1c(C)c(/C=N/NC(=O)c2cc3c(ccc4ccccc43)o2)c2ccccc21 [Compound 7, (E)-ethyl 2-(2-methyl-3-((2-(naphtho[2,1-b]furan-2-carbonyl)hydrazono)methyl)-1H-indol-1-yl)acetate]
activity of inhibiting mitosis: has an activity of inhibiting mitosis
